What is called IC50 is the concentration that gives 50% inhibition. Read a low IC50 as inhibition by little substance.

Active and inactive are the calls of the source. The rule behind the calls is not given here.

Results on 31 compounds are retold here after ChEMBL document CHEMBL3714742, “Pyrimido (4,5-b) indole derivatives” (2003).

Experiment [1] has as its target T1, Dual specificity mitogen-activated protein kinase kinase 7 (Homo sapiens, UniProt O14733).
T1 sequence (O14733 whole entry): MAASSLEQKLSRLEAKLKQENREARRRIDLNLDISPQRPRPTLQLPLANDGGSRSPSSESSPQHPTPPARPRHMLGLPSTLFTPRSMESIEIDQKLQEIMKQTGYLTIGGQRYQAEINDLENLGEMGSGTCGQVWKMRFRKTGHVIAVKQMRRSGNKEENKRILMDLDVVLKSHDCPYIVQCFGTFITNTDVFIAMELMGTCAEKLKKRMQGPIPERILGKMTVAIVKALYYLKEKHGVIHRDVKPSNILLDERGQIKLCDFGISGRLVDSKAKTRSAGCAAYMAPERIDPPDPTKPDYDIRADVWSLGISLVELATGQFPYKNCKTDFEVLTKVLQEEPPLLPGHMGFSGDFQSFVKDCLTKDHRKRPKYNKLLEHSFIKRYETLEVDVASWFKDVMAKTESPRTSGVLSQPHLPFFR
Put plainly: Inhibition of GST-tagged human MKK7 expressed in Escherichia coli (BL21(DE3) pLysS) co-expressing human MEKK catalytic domain using biotinylated and GST-tagged rat GST-KN-SAPKalpha substrate incubated for 1 hr by time-resolved fluorescence based assay.

Experiment [2] has as its system Mus musculus. The experiment in a line: Inhibition of anti-CD3 antibody-induced IL2 production in Balb/c mouse dosed intravenously 5 mins before anti-CD3 antibody injection and measured 2 hrs post-challenge by ELISA. The class given is functional, organism-based. For orientation: In an ELISA, binding on a coated surface is turned into a signal by an enzyme label.

The test system of experiment [3] is Mus musculus. Put plainly: Inhibition of anti-CD3 antibody-induced IL4 production in Balb/c mouse dosed intravenously 5 mins before anti-CD3 antibody injection and measured 2 hrs post-challenge by ELISA. The class given is functional, organism-based.
The test system of experiment [4] is Mus musculus. The experiment in a line: Inhibition of anti-CD3 antibody-induced IFNgamma production in Balb/c mouse dosed intravenously 5 mins before anti-CD3 antibody injection and measured 2 hrs post-challenge by ELISA. It counts as functional, organism-based.

`NC(=O)c1ccc2[nH]c3ncnc(N4CCOCC4)c3c2c1`: the IC50 in experiment [1] was less than 1 µM. The inhibition entry in experiment [2], in experiment [3] and in experiment [4] was “Active” each time.

As for `NCc1ccc2[nH]c3nc(N)nc(N4CCCCC4)c3c2c1`, in experiment [1], the IC50 turned out to be 1 µM. In addition, the inhibition result in experiment [2], in experiment [3] and in experiment [4] was “Active” each time.

As to `CC(CO)Nc1ncnc2[nH]c3ccc(C(N)=O)cc3c12` (centres undefined), the IC50 in experiment [1] is less than 1 µM. In addition, the inhibition entry in experiment [2], in experiment [3] and in experiment [4] was “Active” throughout.

Consider `NC(=O)c1ccc2[nH]c3ncnc(N4CCC(O)CC4)c3c2c1`, for which the IC50 in experiment [1] was less than 1 µM. The inhibition result in experiment [2], in experiment [3] and in experiment [4] was “Active” in each case.

The compound `O=C1CCN(c2ncnc3[nH]c4ccc(O)cc4c23)CC1` showed a concentration for half-maximal inhibition (IC50) in experiment [1] of less than 1 µM. For the same compound, the inhibition entry in experiment [2], in experiment [3] and in experiment [4] was “Active” in each case.

Consider `Nc1nc(N2CCC(Cc3ccccc3)CC2)c2c(n1)[nH]c1ccc(O)cc12`, for which, in experiment [1], it took 1 µM to reach half-maximal inhibition (IC50). Moreover, the inhibition result in experiment [2], in experiment [3] and in experiment [4] was “Active” throughout.

In turn, `Cc1nc(N2CCCCCC2)c2c(n1)[nH]c1ccc(O)cc12` registered an IC50 in experiment [1] of less than 1 µM. For the same compound, the inhibition result in experiment [2], in experiment [3] and in experiment [4] was “Active” each time.

In turn, `CC(C)(C)OC(=O)NCCCNc1ncnc2[nH]c3ccc(C(N)=O)cc3c12` gave an IC50 in experiment [1] of less than 1 µM. Also, the inhibition entry in experiment [2], in experiment [3] and in experiment [4] was “Active” in each case.

For the compound `CC1CCN(c2ncnc3[nH]c4ccc(O)cc4c23)CC1`, in experiment [1], the IC50 is less than 1 µM. The inhibition entry in experiment [2], in experiment [3] and in experiment [4] was “Active” each time.

For the compound `Oc1ccc2[nH]c3ncnc(N4CCC(O)(Cc5ccccc5)CC4)c3c2c1`, the IC50 in experiment [1] is less than 1 µM. For the same compound, the inhibition result in experiment [2], in experiment [3] and in experiment [4] was “Active” throughout.

With `COc1ccc2[nH]c3nc(N)nc(N4CCOCC4)c3c2c1`, the IC50 in experiment [1] is less than 1 µM. The inhibition entry in experiment [2], in experiment [3] and in experiment [4] was “Active” each time.

In experiment [1], `Cc1nc(N2CCCC(O)C2)c2c(n1)[nH]c1ccc(O)cc12` (centres undefined) came in with an IC50 of less than 1 µM. Moreover, the inhibition entry in experiment [2], in experiment [3] and in experiment [4] was “Active” each time.

Compound `Cc1nc(N2CCCCC2)c2c(n1)[nH]c1ccc(O)cc12` came in with an IC50 in experiment [1] of less than 1 µM. The inhibition entry in experiment [2], in experiment [3] and in experiment [4] was “Active” throughout.

`Oc1ccc2[nH]c3ncnc(NCCc4c[nH]cn4)c3c2c1`: the IC50 in experiment [1] is less than 1 µM. The inhibition result in experiment [2], in experiment [3] and in experiment [4] was “Active” each time.

`OCCCNc1ncnc2[nH]c3ccc(O)cc3c12` had an IC50 in experiment [1] of less than 1 µM. Also, the inhibition result in experiment [2], in experiment [3] and in experiment [4] was “Active” each time.

With `Nc1nc(N2CCC(N3CCCC3)CC2)c2c(n1)[nH]c1ccc(O)cc12`, the IC50 in experiment [1] was less than 1 µM. For the same compound, the inhibition entry in experiment [2], in experiment [3] and in experiment [4] was “Active” in each case.

On to `CNc1nc(C)nc2[nH]c3ccc(O)cc3c12`, for which half-maximal inhibition in experiment [1] (IC50) required 1 µM. For the same compound, the inhibition result in experiment [2], in experiment [3] and in experiment [4] was “Active” throughout.

In the case of `CN(CCO)c1ncnc2[nH]c3ccc(C(N)=O)cc3c12`, in experiment [1], the IC50 was less than 1 µM. Moreover, the inhibition entry in experiment [2], in experiment [3] and in experiment [4] was “Active” throughout.

In turn, `Oc1ccc2[nH]c3ncnc(NC4CCOCC4)c3c2c1` came in with an IC50 in experiment [1] of less than 1 µM. Moreover, the inhibition result in experiment [2], in experiment [3] and in experiment [4] was “Active” in each case.

Turning to `NC(=O)c1ccc2[nH]c3ncnc(N4CCC(O)(Cc5ccccc5)CC4)c3c2c1`, the IC50 in experiment [1] was less than 1 µM. Moreover, the inhibition entry in experiment [2], in experiment [3] and in experiment [4] was “Active” each time.

For `NC(=O)c1ccc2[nH]c3ncnc(NC4CCCCCC4)c3c2c1`, the IC50 in experiment [1] was less than 1 µM. Also, the inhibition entry in experiment [2], in experiment [3] and in experiment [4] was “Active” each time.

In experiment [1], `Nc1nc(N2CCC(Br)CC2)c2c(n1)[nH]c1ccc(O)cc12` returned an IC50 of less than 1 µM. Also, the inhibition result in experiment [2], in experiment [3] and in experiment [4] was “Active” throughout.

Regarding `CN(c1nc(N)nc2[nH]c3ccc(O)cc3c12)C1CCCCC1`, the IC50 in experiment [1] was less than 1 µM. The inhibition result in experiment [2], in experiment [3] and in experiment [4] was “Active” each time.

Take `Nc1nc(N2CCCCC2)c2c(n1)[nH]c1ccc(O)cc12`: the IC50 in experiment [1] was less than 1 µM. Further, the inhibition entry in experiment [2], in experiment [3] and in experiment [4] was “Active” throughout.

For the compound `NC(=O)c1ccc2[nH]c3nc(N)nc(N4CCCCC4)c3c2c1`, the IC50 in experiment [1] was less than 1 µM. The inhibition entry in experiment [2], in experiment [3] and in experiment [4] was “Active” each time.

In the case of `Nc1nc(N2CCC3CCCCC3C2)c2c(n1)[nH]c1ccc(O)cc12` (centres undefined), in experiment [1], the IC50 is less than 1 µM. The inhibition entry in experiment [2], in experiment [3] and in experiment [4] was “Active” each time.

Compound `Oc1ccc2[nH]c3ncnc(N4CCCC(O)C4)c3c2c1` (centres undefined) displayed an IC50 in experiment [1] of less than 1 µM. In addition, the inhibition entry in experiment [2], in experiment [3] and in experiment [4] was “Active” throughout.

As to `CCCN(CCC)c1ncnc2[nH]c3ccc(C(N)=O)cc3c12`, in experiment [1], the IC50 was less than 1 µM. The inhibition entry in experiment [2], in experiment [3] and in experiment [4] was “Active” each time.

The compound `COc1cc2[nH]c3nc(N)nc(N4CCOCC4)c3c2cc1OC` yielded an IC50 in experiment [1] of 1 µM. In addition, the inhibition entry in experiment [2], in experiment [3] and in experiment [4] was “Active” throughout.

The compound `Oc1ccc2[nH]c3ncnc(N4CCC(O)C4)c3c2c1` (centres undefined) yielded an IC50 in experiment [1] of less than 1 µM. For the same compound, the inhibition result in experiment [2], in experiment [3] and in experiment [4] was “Active” each time.

On to `OCCC1CCCCN1c1ncnc2[nH]c3ccc(O)cc3c12` (centres undefined), for which, in experiment [1], the IC50 was less than 1 µM. Besides, the inhibition entry in experiment [2], in experiment [3] and in experiment [4] was “Active” in each case.
